Type in all cases: cell-based
The subject of one data set is human CD19^+ CAR T cells. Kind of data set: Growth of human CD19 CAR T cells. The note with it: 500 µM, 7 days.
The subject of data set [1] is protein glutarylation in human CD8^+ T cells. Description: Pan-lysine glutarylation western blot. How it is done:
We determined this first by undertaking whole-protein lysate western blot analyses with a pan-lysine glutarylation (K-glutarylation) antibody[36],[38]. […] Glutarylation patterns were also altered when cells were exposed to different oxygen tensions (Fig. 3c and Extended Data Fig. 3a) and when treated with DEG (Fig. 3d and Extended Data Fig. 3b). […] Since, as shown in Extended Data Fig. 1g, DEG is converted within 15 min to glutarate intracellularly, it is likely that the DEG-induced glutarylation observed after 30 min of DEG treatment is a direct result of increases in intracellular glutarate.
Cell pellets were lysed by either urea-Tris buffer (8 M urea, 50 mM Tris-HCl (pH 7.5), 150 mM β-mercaptoethanol), sonicated twice for 45 s intercalated with 1 min incubation on ice and centrifuged at 14,000g, 4 °C for 15 min or by RIPA Lysis and Extraction Buffer (catalogue no. 89900, Thermo Fisher Scientific), according to the manufacturer’s instructions. Nuclear and cytosolic fractions were prepared from cells using the NE-PER kit (catalogue no. 78833, Thermo Fisher Scientific). Histones were extracted with the Histone Extraction Kit (catalogue no. ab113476, Abcam). Proteins were separated by SDS–PAGE and transferred to polyvinylidene fluoride (PVDF) membranes. Total protein stain was obtained using non-stain protein labelling reagent (catalogue no. A44448, Thermo Fisher Scientific). […]

The test system of the next data set is murine CD8^+ T cells. Kind of data set: Cell growth and viability of murine CD8^+ T cells. The note with it: 7 days. How it is done: After 7 days of culture, we assessed the abundance of CD62L^hiCD44^hi (TCM-like) T cells by flow cytometry (Fig. 1a). We additionally determined the effect of each compound on cell growth and viability (Fig. 1b and Extended Data Fig. 1a).
B16F10 cells were originally purchased from ATCC (catalogue no. CRL-6475) and genetically modified to express OVA, enhanced green fluorescent protein (GFP) and neomycin phosphotransferase. The resulting OVA expression B16F10-OVA cells were cultured in DMEM (catalogue no. 11995065, Thermo Fisher Scientific) containing 0.75 mg ml^−1 G418 sulphate (catalogue no. 10131027, Thermo Fisher Scientific). HEK 293T cells were purchased from Takara Bio (catalogue no. 632180) and cultured in DMEM. SKOV3 was purchased from ATCC (catalogue no. HTB-77) and cultured in McCoy’s 5A (Modified) Medium (catalogue no. 16600082, Thermo Fisher Scientific). Raji-GFP-Luc cells were purchased from Biocytogen (catalogue no. B-HCL-010) and cultured in Roswell Park Memorial Institute (RPMI) 1640 (catalogue no. 21875, Thermo Fisher Scientific). Jurkat cells were purchased from ATCC (catalogue no. TIB-152) and cultured in RPMI 1640. RAW 264.7 cells were purchased from ATCC (catalogue no. TIB-71) and cultured in RPMI 1640. HeLa cells were a gift from P. Lehner (University of Cambridge) and were authenticated using short tandem repeat profiling (Eurofins Genomics). HeLa cells were cultured in DMEM. MEFs were isolated from macerated embryonic day (E) 12.5–13.5 embryos. A whole litter of embryos without sex selection were used. Stable transfection with SV40 large T antigen passage 3 was used for immortalization. Cells were subcultured over 17 more passages and maintained in DMEM[63]. All media was supplemented with 10% FCS (catalogue no. 10270106, Gibco), 100 U ml^−1 penicillin and 100 µg ml^−1 streptomycin (catalogue no. P4333, Sigma-Aldrich). […] Cell number and viability was determined using the ADAM-MC Automated Cell Counter (NanoEntek), CellDrop Automated Cell Counter (DeNovix) or TC20 Automated Cell Counter (Bio-Rad Laboratories). […]

As for `CCOC(=O)CCCC(=O)OCC` [DEG, Diethyl glutarate], the “growth of human CD19^+ CAR T cells” value in the data set with human CD19^+ CAR T cells is listed as “did not affect the growth”. Besides, in data set [1] (500 µM DEG), the “time of culture with DEG after which shifts in glutarylation could be detected” value is given as 30 min. In data set [1] (increasing concentrations of DEG, 7 days), the glutarylation patterns entry is reported as “altered”. For the same compound, the “cell viability or proliferation” value in the data set with murine CD8^+ T cells (400 µM) is reported as “no negative effects”. Besides, the cell growth result with murine CD8^+ T cells (even at 1-mM concentrations) is reported as “did not display any negative effects”.

(Values after PMC10590756, “Glutarate regulates T cell metabolism and anti-tumour immunity” (Nature Metabolism, 2023).)
